Earlier results, collected in patent publication US5010056A, “Pharmaceutical composition for intranasal administration, comprising GH-releasing hormone, a cholinergic agonist and optionally a bile salt” (priority 1987, dated 1991).
Where two headings read alike, the source gives them in different places.

Experiments:
GH secretion = details: previous administration of an oral dose
[1] = orally administered

| Compound | effect on GH secretion and on the effect of intravenously injected GHRH (GH secretion) | bioavailability [1] | bioavailability (nasal administration) | doses required nasally to obtain comparable effects, relative to parenteral doses (nasal versus parenteral administration) |
| --- | --- | --- | --- | --- |
| CN(C)C(=O)Oc1ccc[n+](C)c1 [pyridostigmine] | able to stimulate GH secretion and significantly increase the effect of intravenously injected GHRH | low | – | – |
| GH-releasing hormone [GHRH] | – | – | low | 300-1000 times the parenteral doses |
